Assay results from patent publication US20020137929A1, “1 - (3-heterocyclylphenyl) isothiourea, -isourea, -guanidine and -amidine herbicidal agents” (Intellectual Property Department, BASF Aktiengesellschaft, priority 1998, published 2002).

Tests used:
AMBEL (Ragweed, Common) [1] = test: Postemergence herbicidal evaluation; assay type: in vivo, Ambrosia artemisifolia; details: postemergence
Summary of the method: (§1)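 Each compound, dispersed in an acetone/water mix (50/50) carrying 0.5% TWEEN 20, is nozzle-sprayed at 40 psi on approximately two-week-old seedlings at about 0.0156–0.500 kg/ha. Plants are assessed 4–5 weeks afterward on a 0–9 scale relative to control; duplicate tests are averaged.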

[2] = system: IPOHE (Morningglory, Ivyleaf); test: Postemergence herbicidal evaluation; assay type: in vivo, Ipomoea hederacea; details: postemergence
Summary of the method: as §1

[3] = system: GLXMAW (Soybean, Williams); test: Postemergence herbicidal evaluation; assay type: in vivo, Glycine max, (L.) Merr. cv Williams; details: postemergence
Summary of the method: as §1

ZEAMX (Corn, Field) = test: Postemergence herbicidal evaluation; assay type: in vivo, Zea mays; details: postemergence
Summary of the method: as §1

ABUTH (Velvetleaf) = test: Preemergence herbicidal evaluation; assay type: in vivo, Abutilon theophrasti; details: rated 4-5 weeks after treatment
Summary of the method: (§2)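 Sown cups got a single aqueous acetone spray of test compound (roughly 0.0156–0.500 kg/ha) before seedlings emerged. Evaluation, 4–5 weeks on, used a 0–9 visual scale covering plant stand, vigor, size, malformation, chlorosis and general appearance compared with controls.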

AMBEL (Ragweed, Common) [4] = test: Preemergence herbicidal evaluation; assay type: in vivo, Ambrosia artemisifolia; details: rated 4-5 weeks after treatment
Summary of the method: as §2

CASOB (Sicklepod) = test: Preemergence herbicidal evaluation; assay type: in vivo, Cassia obtusifolia; details: rated 4-5 weeks after treatment
Summary of the method: as §2

GALAP (Galium) = test: Preemergence herbicidal evaluation; assay type: in vivo, Galium aparine; details: rated 4-5 weeks after treatment
Summary of the method: as §2

ECHCG (Barnyardgrass) = test: Preemergence herbicidal evaluation; assay type: in vivo, Echinochloa crus-galli; details: rated 4-5 weeks after treatment
Summary of the method: as §2

SETVI (Foxtail, Green) = test: Preemergence herbicidal evaluation; assay type: in vivo, Setaria viridis; details: rated 4-5 weeks after treatment
Summary of the method: as §2

[5] = system: GLXMAW (Soybean, Williams); test: Preemergence herbicidal evaluation; assay type: in vivo, Glycine max, (L.) Merr. cv Williams; details: rated 4-5 weeks after treatment
Summary of the method: as §2

CYPSE (Flatsedge) = test: Preemergence weed control under flooded paddy conditions; assay type: in vivo, Cyperus serotinus; details: rated 3-4 weeks after treatment
Summary of the method: (§3)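 Ratings on a 0-9 visual scale cover stand, vigor, malformation, size, chlorosis and overall appearance relative to a control, taken three to four weeks post-treatment. Application was into flood water over freshly sown silt loam at roughly 0.0313 to 0.500 kg/ha.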

[6] = system: SAGPY (Arrowhead (Pygmaea)); test: as above; assay type: in vivo, Sagittaria pygmaea; details: rated 3-4 weeks after treatment
Summary of the method: as §3

[7] = system: ECHORC (Watergrass (Calif.)); test: Postemergence weed control under flooded paddy conditions; assay type: in vivo, Echinochloa oryzoides; details: postemergence weeds
Summary of the method: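 Injury ratings (0–9 scale covering stand, vigor, malformation, size, chlorosis and overall appearance versus control) were made three to four weeks after treatment. Test material, about 0.0313 to 0.500 kg/ha a.i. in 50/50 v/v aqueous/acetone, was added to flood water 1.5 to 3 cm deep over 3 to 5 cm weeds and 1.5 to 2.5 leaf rice.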

Compound: CCOC(=O)CN1C(=O)C(=Cc2ccccc2)SC1=Nc1cc(-n2c(=O)cc(C(F)(F)F)n(C)c2=O)c(F)cc1Cl [Compound 19, Ethyl 5-benzylidene-2-{{2-chloro-5-[3,6-dihydro-3-methyl-2,6-dioxo-4-(trifluoromethyl)-1(2H)-pyrimidinyl]-4-fluorophenyl}imino}-4-oxo-3-thiazolidineacetate]
- AMBEL herbicidal rating (AMBEL (Ragweed, Common) [1]; rate 0.0158 kg/ha): 3.0
- AMBEL herbicidal rating (AMBEL (Ragweed, Common) [1]; rate 0.0315 kg/ha): 3.0
- AMBEL herbicidal rating (AMBEL (Ragweed, Common) [1]; rate 0.0630 kg/ha): 7.0
- IPOHE herbicidal rating ([2]; rate 0.0158 kg/ha): 2.0
- IPOHE herbicidal rating ([2]; rate 0.0315 kg/ha): 9.0
- IPOHE herbicidal rating ([2]; rate 0.0630 kg/ha): 5.0
- GLXMAW herbicidal rating ([3]; rate 0.0158 kg/ha): 3.0
- GLXMAW herbicidal rating ([3]; rate 0.0315 kg/ha): 4.5
- GLXMAW herbicidal rating ([3]; rate 0.0630 kg/ha): 4.5
- ZEAMX herbicidal rating (ZEAMX (Corn, Field); rate 0.0158 kg/ha): 4.0
- ZEAMX herbicidal rating (ZEAMX (Corn, Field); rate 0.0315 kg/ha): 4.5
- ZEAMX herbicidal rating (ZEAMX (Corn, Field); rate 0.0630 kg/ha): 5.0
- ABUTH preemergence herbicidal rating (ABUTH (Velvetleaf); rate 0.1250 kg/ha): 9.0
- ABUTH preemergence herbicidal rating (ABUTH (Velvetleaf); rate 0.2500 kg/ha): 9.0
- AMBEL preemergence herbicidal rating (AMBEL (Ragweed, Common) [4]; rate 0.1250 kg/ha): 0.0
- AMBEL preemergence herbicidal rating (AMBEL (Ragweed, Common) [4]; rate 0.2500 kg/ha): 1.0
- CASOB preemergence herbicidal rating (CASOB (Sicklepod); rate 0.1250 kg/ha): 0.0
- CASOB preemergence herbicidal rating (CASOB (Sicklepod); rate 0.2500 kg/ha): 0.0
- GALAP preemergence herbicidal rating (GALAP (Galium); rate 0.1250 kg/ha): 0.0
- GALAP preemergence herbicidal rating (GALAP (Galium); rate 0.2500 kg/ha): 0.0
- ECHCG preemergence herbicidal rating (ECHCG (Barnyardgrass); rate 0.1250 kg/ha): 0.0
- ECHCG preemergence herbicidal rating (ECHCG (Barnyardgrass); rate 0.2500 kg/ha): 0.0
- SETVI preemergence herbicidal rating (SETVI (Foxtail, Green); rate 0.1250 kg/ha): 0.0
- SETVI preemergence herbicidal rating (SETVI (Foxtail, Green); rate 0.2500 kg/ha): 0.0
- GLXMAW preemergence herbicidal rating ([5]; rate 0.1250 kg/ha): 0.0
- GLXMAW preemergence herbicidal rating ([5]; rate 0.2500 kg/ha): 0.0
- Herbicidal rating CYPSE (CYPSE (Flatsedge); 0.1160 kg/ha): 4.0
- Herbicidal rating CYPSE (CYPSE (Flatsedge); 0.2310 kg/ha): 4.0
- Herbicidal rating CYPSE (CYPSE (Flatsedge); 0.4630 kg/ha): 4.0
- Herbicidal rating SAGPY ([6]; 0.1160 kg/ha): 0.0
- Herbicidal rating SAGPY ([6]; 0.2310 kg/ha): 3.0
- Herbicidal rating SAGPY ([6]; 0.4630 kg/ha): 3.0
- Herbicidal rating ECHORC ([7]; rate 0.1160 kg/ha, 3-4 weeks after treatment): 7.0
- Herbicidal rating ECHORC ([7]; rate 0.2310 kg/ha, 3-4 weeks after treatment): 7.0
- Herbicidal rating ECHORC ([7]; rate 0.4630 kg/ha, 3-4 weeks after treatment): 9.0

Compound: CC(C)S(=O)(=O)NC(=O)CC1SC(=Nc2cc(-n3c(=O)cc(C(F)(F)F)n(C)c3=O)c(F)cc2Cl)N(C)C1=O (stereo not drawn) [Compound 119, 2-{{2-Chloro-5-[3,6-dihydro-3-methyl-2,6-dioxo-4-(trifluoromethyl)-1(2H)-pyrimidinyl]-4-fluorophenyl}imino}-N-(isopropylsulfonyl)-3-methyl-4-oxo-5-thiazolidineacetamide]
- Herbicidal rating AMBEL (AMBEL (Ragweed, Common) [1]; rate 0.0156 kg/ha): 9.0
- Herbicidal rating AMBEL (AMBEL (Ragweed, Common) [1]; rate 0.0313 kg/ha): 9.0
- Herbicidal rating AMBEL (AMBEL (Ragweed, Common) [1]; rate 0.0625 kg/ha): 9.0
- Herbicidal rating IPOHE ([2]; rate 0.0156 kg/ha): 9.0
- Herbicidal rating IPOHE ([2]; rate 0.0313 kg/ha): 9.0
- Herbicidal rating IPOHE ([2]; rate 0.0625 kg/ha): 9.0
- Herbicidal rating GLXMAW ([3]; rate 0.0156 kg/ha): 7.0
- Herbicidal rating GLXMAW ([3]; rate 0.0313 kg/ha): 8.5
- Herbicidal rating GLXMAW ([3]; rate 0.0625 kg/ha): 8.5
- Herbicidal rating ZEAMX (ZEAMX (Corn, Field); rate 0.0156 kg/ha): 4.5
- Herbicidal rating ZEAMX (ZEAMX (Corn, Field); rate 0.0313 kg/ha): 5.5
- Herbicidal rating ZEAMX (ZEAMX (Corn, Field); rate 0.0625 kg/ha): 6.0
- Preemergence herbicidal rating ABUTH (ABUTH (Velvetleaf); rate 0.0156 kg/ha): 0.0
- Preemergence herbicidal rating ABUTH (ABUTH (Velvetleaf); rate 0.0313 kg/ha): 3.0
- Preemergence herbicidal rating ABUTH (ABUTH (Velvetleaf); rate 0.0625 kg/ha): 4.0
- Preemergence herbicidal rating ABUTH (ABUTH (Velvetleaf); rate 0.1250 kg/ha): 9.0
- Preemergence herbicidal rating ABUTH (ABUTH (Velvetleaf); rate 0.2500 kg/ha): 9.0
- Preemergence herbicidal rating AMBEL (AMBEL (Ragweed, Common) [4]; rate 0.0156 kg/ha): 0.0
- Preemergence herbicidal rating AMBEL (AMBEL (Ragweed, Common) [4]; rate 0.0313 kg/ha): 0.0
- Preemergence herbicidal rating AMBEL (AMBEL (Ragweed, Common) [4]; rate 0.0625 kg/ha): 0.0
- Preemergence herbicidal rating AMBEL (AMBEL (Ragweed, Common) [4]; rate 0.1250 kg/ha): 4.0
- Preemergence herbicidal rating AMBEL (AMBEL (Ragweed, Common) [4]; rate 0.2500 kg/ha): 4.0
- Preemergence herbicidal rating CASOB (CASOB (Sicklepod); rate 0.0156 kg/ha): 0.0
- Preemergence herbicidal rating CASOB (CASOB (Sicklepod); rate 0.0313 kg/ha): 0.0
- Preemergence herbicidal rating CASOB (CASOB (Sicklepod); rate 0.0625 kg/ha): 0.0
- Preemergence herbicidal rating CASOB (CASOB (Sicklepod); rate 0.2500 kg/ha): 3.0
- Preemergence herbicidal rating GALAP (GALAP (Galium); rate 0.0156 kg/ha): 0.0
- Preemergence herbicidal rating GALAP (GALAP (Galium); rate 0.0313 kg/ha): 0.0
- Preemergence herbicidal rating GALAP (GALAP (Galium); rate 0.0625 kg/ha): 0.0
- Preemergence herbicidal rating GALAP (GALAP (Galium); rate 0.1250 kg/ha): 0.0
- Preemergence herbicidal rating GALAP (GALAP (Galium); rate 0.2500 kg/ha): 4.0
- Preemergence herbicidal rating ECHCG (ECHCG (Barnyardgrass); rate 0.0156 kg/ha): 0.0
- Preemergence herbicidal rating ECHCG (ECHCG (Barnyardgrass); rate 0.0313 kg/ha): 0.0
- Preemergence herbicidal rating ECHCG (ECHCG (Barnyardgrass); rate 0.0625 kg/ha): 0.0
- Preemergence herbicidal rating ECHCG (ECHCG (Barnyardgrass); rate 0.1250 kg/ha): 2.0
- Preemergence herbicidal rating ECHCG (ECHCG (Barnyardgrass); rate 0.2500 kg/ha): 2.0
- Preemergence herbicidal rating SETVI (SETVI (Foxtail, Green); rate 0.0156 kg/ha): 0.0
- Preemergence herbicidal rating SETVI (SETVI (Foxtail, Green); rate 0.0313 kg/ha): 0.0
- Preemergence herbicidal rating SETVI (SETVI (Foxtail, Green); rate 0.0625 kg/ha): 2.0
- Preemergence herbicidal rating SETVI (SETVI (Foxtail, Green); rate 0.1250 kg/ha): 7.0
- Preemergence herbicidal rating SETVI (SETVI (Foxtail, Green); rate 0.2500 kg/ha): 7.0
- Preemergence herbicidal rating GLXMAW ([5]; rate 0.0156 kg/ha): 0.0
- Preemergence herbicidal rating GLXMAW ([5]; rate 0.0313 kg/ha): 0.0
- Preemergence herbicidal rating GLXMAW ([5]; rate 0.0625 kg/ha): 0.0
- Preemergence herbicidal rating GLXMAW ([5]; rate 0.1250 kg/ha): 1.0
- Preemergence herbicidal rating GLXMAW ([5]; rate 0.2500 kg/ha): 2.0
- herbicidal effect rating, CYPSE (CYPSE (Flatsedge); 0.0313 kg/ha): 0.0
- herbicidal effect rating, CYPSE (CYPSE (Flatsedge); 0.0625 kg/ha): 0.0
- herbicidal effect rating, CYPSE (CYPSE (Flatsedge); 0.1250 kg/ha): 0.0
- herbicidal effect rating, CYPSE (CYPSE (Flatsedge); 0.2500 kg/ha): 1.0
- herbicidal effect rating, SAGPY ([6]; 0.0313 kg/ha): 2.5
- herbicidal effect rating, SAGPY ([6]; 0.0625 kg/ha): 3.0
- herbicidal effect rating, SAGPY ([6]; 0.1250 kg/ha): 3.5
- herbicidal effect rating, SAGPY ([6]; 0.2500 kg/ha): 4.5
- Herbicidal rating ECHORC ([7]; Rate 0.0313 kg/ha, rated 3 to 4 weeks after treatment): 0.0
- Herbicidal rating ECHORC ([7]; Rate 0.0625 kg/ha, rated 3 to 4 weeks after treatment): 2.0
- Herbicidal rating ECHORC ([7]; Rate 0.1250 kg/ha, rated 3 to 4 weeks after treatment): 4.0
- Herbicidal rating ECHORC ([7]; Rate 0.2500 kg/ha, rated 3 to 4 weeks after treatment): 4.0
